From ChEMBL document CHEMBL5512688 (J Med Chem, 2024) come the findings set out here.

A word on the IC50: it is the midpoint of a concentration-inhibition curve. One may read the AUC(0-t) as exposure summed from dosing to a finite time, without extrapolation to infinity. Read a high AUC(0-t) as more exposure. The term half-life denotes the time in which the quantity being followed falls by half. The low end stands for rapid decline, the high end for slow decline. The term Vd denotes the apparent volume that relates the amount in the body to the concentration in plasma or blood. Higher therefore signals wide distribution into tissue. The term clearance denotes the rate of elimination divided by the concentration. A lower clearance goes with a low capacity for elimination. For orientation: bioavailability means dose-corrected exposure relative to a reference, in per cent. Low readings indicate poor availability, high ones good availability.

Data set [1] concerns the target T1, Wee1-like protein kinase (Homo sapiens, UniProt P30291). The data set is described as follows: Inhibition of human Wee1 (215 to 647 residues) using polyornithine/tyrosine (4:1) as substrate incubated for 5 mins in presence of ATP by micro beta plate reader analysis.
Another data set has as its system A-427. Briefly: Antiproliferative activity against human A-427 cells assessed as inhibition of cell growth incubated for 72 hrs by CCK-8 assay. It counts as functional, cell-based. The conditions noted are these: A-427, 72 h. On the technique in general: Tetrazolium assays rely on reduction of a dye to a coloured formazan, in cell work by metabolically active cells.

Data set [2] is described as follows: Metabolic stability in human liver microsome assessed as parent compound remaining measured at 60 mins by LCMS/MS analysis. It counts as ADME. The note with it: liver microsomes, read-out: Stability.
Data set [3] in a line: Metabolic stability in mouse liver microsome assessed as parent compound remaining measured at 60 mins by LCMS/MS analysis. It counts as ADME. The note with it: liver microsomes, read-out: Stability. In general terms: Liver microsomes are vesicles of endoplasmic reticulum, rich in cytochrome P450 enzymes.
Data set [4] can be described thus: AUC (0 to 24 hrs) in ICR mouse at 1 mg/kg, iv measured upto 24 hrs by LC-MS/MS analysis. It counts as ADME, organism-based. The note with it: in vivo.
Data set [5] can be described thus: Half life in ICR mouse at 1 mg/kg, iv measured upto 24 hrs by LC-MS/MS analysis. The conditions noted are these: in vivo. It counts as ADME, organism-based.
Data set [6] in a line: Volume of distribution in ICR mouse at 1 mg/kg, iv measured upto 24 hrs by LC-MS/MS analysis. The conditions noted are these: in vivo. It counts as ADME, organism-based.
A short description of data set [7]: Clearance in ICR mouse at 1 mg/kg, iv measured upto 24 hrs by LC-MS/MS analysis. It counts as ADME, organism-based. The note with it: in vivo.
Data set [8] is described as follows: AUC (0 to 24 hrs) in ICR mouse at 60 mg/kg, IG measured upto 24 hrs by LC-MS/MS analysis. It counts as ADME, organism-based. The note with it: in vivo, po.
Data set [9] in a line: Half life in ICR mouse at 60 mg/kg, IG measured upto 24 hrs by LC-MS/MS analysis. It counts as ADME, organism-based. The note with it: in vivo, po.
Data set [10] can be described thus: Bioavailability in ICR mouse at 60 mg/kg, IG measured upto 24 hrs by LC-MS/MS analysis. It counts as ADME, organism-based. The note with it: in vivo, po.
Data set [11] has as its system LoVo. Briefly: Antiproliferative activity against human LoVo cells assessed as inhibition of cell growth incubated for 72 hrs by CCK-8 method. It counts as functional, cell-based.
In data set [12] the target is T1, Wee1-like protein kinase. The data set is described as follows: Inhibition of Wee1 in human U2OS cells assessed as reduction in CDK1 phosphorylation measured for 1 hr by Western blot analysis. It counts as cell-based. (In general: A western blot detects proteins with antibodies after separation by electrophoresis.)
Data set [13] concerns LoVo. Briefly: Antitumor activity against human LoVo cells xenografted in female BALB/c nude mouse assessed as tumor growth inhibition at 60 mg/kg, IG administered once daily for 27 days. It counts as functional. The conditions noted are these: po, 648 h, time 27 day, read-out: TGI.

T1 sequence (P30291 whole entry, the tested form may be a part): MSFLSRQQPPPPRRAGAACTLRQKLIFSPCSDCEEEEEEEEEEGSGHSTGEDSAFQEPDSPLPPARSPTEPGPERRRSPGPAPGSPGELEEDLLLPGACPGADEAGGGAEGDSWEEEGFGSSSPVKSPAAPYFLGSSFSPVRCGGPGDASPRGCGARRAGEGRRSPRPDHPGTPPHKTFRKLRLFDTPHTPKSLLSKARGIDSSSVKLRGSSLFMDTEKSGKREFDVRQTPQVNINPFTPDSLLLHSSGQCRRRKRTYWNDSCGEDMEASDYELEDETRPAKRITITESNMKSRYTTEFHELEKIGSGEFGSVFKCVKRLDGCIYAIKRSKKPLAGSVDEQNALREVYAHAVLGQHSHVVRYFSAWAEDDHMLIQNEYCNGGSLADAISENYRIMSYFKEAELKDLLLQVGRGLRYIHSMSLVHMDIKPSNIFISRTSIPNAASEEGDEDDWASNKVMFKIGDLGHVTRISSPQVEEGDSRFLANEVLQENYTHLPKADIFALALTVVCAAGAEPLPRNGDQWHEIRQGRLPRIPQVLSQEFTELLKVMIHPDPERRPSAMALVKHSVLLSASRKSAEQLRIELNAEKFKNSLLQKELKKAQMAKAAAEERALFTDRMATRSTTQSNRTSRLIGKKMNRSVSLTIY

Regarding `C=CCn1c(=O)c2cnc(Nc3ccc(N4CCN(CCO)CC4)cc3)nc2n1-c1cccc(-c2cnccn2)n1`, the results for the IC50 on Wee1-like protein kinase [1] and in the data set with A-427 were 2.9 nM and 105 nM, respectively. The remaining at 1 h in data set [2] came out at 71.2%; in data set [3], 56%. Also, the exposure AUC(0-t) at 24 h in data set [4] turned out to be 74.3 ng·h/mL; in data set [8] it was 2440 ng·h/mL. The results for the half-life in [5] and in data set [9] were 1.3 h and 4.68 h, respectively. In data set [6], the Vd turned out to be 17 L/kg. The compound also had a clearance in data set [7] of 218 mL/min/kg. The bioavailability in data set [10] is 54.9%.
As to `C=CCn1c(=O)c2cnc(Nc3ccc(C4CCN(C)CC4)cc3)nc2n1-c1cccc(-c2ncccn2)n1`, the results for the IC50 on Wee1-like protein kinase [1] and in the data set on A-427 were 2.1 nM and 334 nM, respectively. Also, the remaining at 1 h in data set [2] amounted to 67.3%; in [3], 79.4%. Also, the AUC(0-t) at 24 h amounted to 236 ng·h/mL in [4] and 4280 ng·h/mL in data set [8]. Moreover, the half-life in [5] is 1.51 h; in data set [9], 3.55 h. Moreover, the Vd in data set [6] came out at 9.03 L/kg. Besides, the clearance in [7] was 69.5 mL/min/kg. Moreover, the bioavailability in data set [10] was found to be 30.3%.
On to `C=CCn1c(=O)c2cnc(Nc3ccc(N4CCC(N5CCN(C)CC5)CC4)cc3)nc2n1-c1cccc(-c2cnccn2)n1`, for which the IC50 on Wee1-like protein kinase [1] came out at 2 nM; in the data set with A-427, 192 nM; in the data set with LoVo [11], 166 nM; at Wee1-like protein kinase [12], 401 nM. Besides, the remaining at 1 h in data set [2] is 76.3%; in [3], 78.5%. Moreover, the exposure AUC(0-t) at 24 h in data set [4] worked out at 699 ng·h/mL; in data set [8], 20300 ng·h/mL. This compound showed a half-life in data set [5] of 2.55 h. In addition, in data set [6], the Vd stood at 5.6 L/kg. This compound also gave a clearance in data set [7] of 23.8 mL/min/kg. This compound gave a bioavailability in data set [10] of 48.5%. Moreover, the inhibition in vivo at 60 mg/kg in the data set on LoVo [13] worked out at 58%.
Take `C=CCn1c(=O)c2cnc(Nc3ccc(N4C[C@@H](C)N[C@@H](C)C4)cc3)nc2n1-c1cccc(-c2ncccn2)n1`: the IC50 at Wee1-like protein kinase [1] amounted to 2.4 nM; in the data set on A-427, 341 nM. For the same compound, the results for the remaining at 1 h in [2] and in [3] were 51.3% and 83.9%, respectively. Further, the values for the AUC(0-t) at 24 h in [4] and in data set [8] were 35.5 ng·h/mL and 1850 ng·h/mL, respectively. Besides, the figures for the half-life in data set [5] and in data set [9] were 1.72 h and 5.42 h, respectively. Moreover, the Vd in data set [6] came out at 60.5 L/kg. Also, the clearance in data set [7] is 427 mL/min/kg. The same compound yielded a bioavailability in data set [10] of 87.1%.
On to `C=CCn1c(=O)c2cnc(Nc3ccc(N4CCN(C)CC4)cc3)nc2n1-c1ccc2c(n1)[C@@](O)(CC)CC2` [AZENOSERTIB], for which the IC50 amounted to 317 nM in the data set with LoVo [11] and 567 nM on Wee1-like protein kinase [12]. Moreover, in the data set with LoVo [13], the inhibition in vivo at 60 mg/kg stood at 80%.
Consider `C=CCn1c(=O)c2cnc(Nc3ccc(N4CCN(C)CC4)cc3)nc2n1-c1cccc(-c2ncccn2)n1`, for which the IC50 amounted to 2.2 nM on Wee1-like protein kinase [1], 399 nM with A-427, 557 nM in the data set with LoVo [11] and 465 nM on Wee1-like protein kinase [12]. Besides, the remaining at 1 h turned out to be 79.8% in data set [2] and 63.9% in [3]. The area under the curve AUC(0-t) at 24 h in data set [4] came to 403 ng·h/mL; in data set [8], 14800 ng·h/mL. The half-life in data set [5] was 1.19 h; in [9], 1.74 h. In data set [6], this compound gave a Vd of 4.24 L/kg. In addition, the clearance in [7] was 41.2 mL/min/kg. The bioavailability in data set [10] is 61.1%.
As to `C=CCn1c(=O)c2cnc(Nc3ccc(N4CCC(N5CCN(C)CC5)CC4)cc3)nc2n1-c1cccc(-c2ncccn2)n1`, the IC50 at Wee1-like protein kinase [1] is 3.7 nM; in the data set with A-427, 585 nM; in the data set with LoVo [11], 714 nM; on Wee1-like protein kinase [12], 914 nM. Besides, the remaining at 1 h stood at 88.9% in data set [2] and 97.1% in [3]. Also, the results for the AUC(0-t) at 24 h in data set [4] and in data set [8] were 980 ng·h/mL and 32400 ng·h/mL, respectively. For the same compound, the half-life in data set [5] is 2.39 h; in data set [9] it was 3.71 h. The same compound displayed a Vd in [6] of 3.72 L/kg. In data set [7], this compound showed a clearance of 16.8 mL/min/kg. In data set [10], this compound displayed a bioavailability of 55.1%.
